Test results taken from ChEMBL document CHEMBL1135504, “Structure-activity relationships of the melanocortin tetrapeptide Ac-His-DPhe-Arg-Trp-NH(2) at the mouse melanocortin receptors: part 2 modifications at the Phe position” (J Med Chem, 2002).
Where a SMILES comes first, the peptide text is derived from it.

Legend:
[1] = molecular target: Melanocortin receptor 4 (Mus musculus, UniProt P56450); assay: Agonist activity to the mouse Melanocortin-4 receptor (mMC4R); format: functional
[2] = molecular target: T1, Melanocortin receptor 3 (Mus musculus, UniProt P33033); assay: Agonist activity to the mouse Melanocortin-3 receptor (mMC3R); format: functional
[3] = molecular target: Melanocyte-stimulating hormone receptor (Mus musculus, UniProt Q01727); assay: Agonist activity to the mouse Melanocortin-1 receptor (mMC1R); format: functional
[4] = molecular target: Melanocortin receptor 5 (Mus musculus, UniProt P41149); assay: Agonist activity towards mouse Melanocortin-5 receptor (mMC5R); format: functional
[5] = molecular target: T1, Melanocortin receptor 3; assay: Agonist activity of compound towards mouse Melanocortin-3 receptor (mMC3R); partial agonist; format: functional; conditions: read-out: pA2 (converted)
[6] = molecular target: T1, Melanocortin receptor 3; assay: Binding constant (Ki) at mouse Melanocortin-3 receptor

Sequence of Melanocyte-stimulating hormone receptor (Q01727 whole entry): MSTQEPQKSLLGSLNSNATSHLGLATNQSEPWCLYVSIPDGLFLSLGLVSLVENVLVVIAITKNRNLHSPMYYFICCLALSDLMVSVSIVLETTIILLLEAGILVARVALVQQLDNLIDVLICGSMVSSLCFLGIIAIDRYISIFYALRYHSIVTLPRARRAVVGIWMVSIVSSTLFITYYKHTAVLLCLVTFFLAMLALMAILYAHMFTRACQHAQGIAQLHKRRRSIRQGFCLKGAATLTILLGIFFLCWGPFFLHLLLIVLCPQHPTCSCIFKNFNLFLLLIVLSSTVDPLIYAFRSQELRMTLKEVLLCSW
Sequence of Melanocortin receptor 4 (P56450 whole entry): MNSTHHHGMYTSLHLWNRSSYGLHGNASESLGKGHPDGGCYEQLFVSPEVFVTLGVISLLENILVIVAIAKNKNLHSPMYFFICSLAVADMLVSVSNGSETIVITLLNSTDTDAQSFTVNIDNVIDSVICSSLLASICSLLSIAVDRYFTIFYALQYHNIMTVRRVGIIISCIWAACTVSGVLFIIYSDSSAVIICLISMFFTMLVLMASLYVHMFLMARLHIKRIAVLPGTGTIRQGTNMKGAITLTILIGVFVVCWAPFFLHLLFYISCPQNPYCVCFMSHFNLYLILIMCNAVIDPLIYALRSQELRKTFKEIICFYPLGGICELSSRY
Sequence of Melanocortin receptor 5 (P41149 whole entry): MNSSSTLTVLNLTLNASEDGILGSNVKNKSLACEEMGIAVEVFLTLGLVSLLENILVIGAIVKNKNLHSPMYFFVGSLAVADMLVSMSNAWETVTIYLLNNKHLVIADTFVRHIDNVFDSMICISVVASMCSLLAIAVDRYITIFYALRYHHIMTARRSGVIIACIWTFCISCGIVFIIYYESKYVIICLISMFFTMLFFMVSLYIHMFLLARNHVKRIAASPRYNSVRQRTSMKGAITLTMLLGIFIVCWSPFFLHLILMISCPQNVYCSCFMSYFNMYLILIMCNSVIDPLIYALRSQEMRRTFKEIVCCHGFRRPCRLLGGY
T1 sequence (P33033 whole entry): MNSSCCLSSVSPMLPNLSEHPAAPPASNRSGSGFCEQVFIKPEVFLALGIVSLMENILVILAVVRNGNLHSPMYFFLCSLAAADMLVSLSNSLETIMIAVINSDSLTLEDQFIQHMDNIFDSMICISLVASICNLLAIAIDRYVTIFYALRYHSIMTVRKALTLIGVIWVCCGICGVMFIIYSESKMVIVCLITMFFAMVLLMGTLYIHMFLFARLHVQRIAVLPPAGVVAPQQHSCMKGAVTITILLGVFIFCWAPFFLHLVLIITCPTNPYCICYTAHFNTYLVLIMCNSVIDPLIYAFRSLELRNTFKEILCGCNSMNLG

Structure (SMILES) | EC50 [1] [µM] | EC50 [2] [µM] | EC50 [3] [µM] | EC50 [4] [µM] | Kb [5] [µM] | Ki [6] [µM]
CC(=O)N[C@@H](Cc1c[nH]cn1)C(=O)N[C@@H](C(=O)N[C@@H](CCCN=C(N)N)C(=O)N[C@@H](Cc1c[nH]c2ccccc12)C(N)=O)C(c1ccccc1)c1ccccc1 | 5 | > 100 | 1.5 | 4.3 | – | –
CC(=O)N[C@@H](Cc1cnc[nH]1)C(=O)N[C@@H](Cc1cccc2ccccc12)C(=O)N[C@@H](CCCNC(=N)N)C(=O)N[C@@H](Cc1c[nH]c2ccccc12)C(N)=O | > 100 | > 100 | 15.2 | 11.2 | – | –
CC(=O)N[C@@H](Cc1cnc[nH]1)C(=O)N[C@@H](Cc1ccncc1)C(=O)N[C@@H](CCCNC(=N)N)C(=O)N[C@@H](Cc1c[nH]c2ccccc12)C(N)=O | 24.4 | > 100 | 36.7 | 9.7 | – | –
CC(=O)N[C@@H](Cc1c[nH]cn1)C(=O)N[C@@H](Cc1ccc2ccccc2c1)C(=O)N[C@@H](CCCN=C(N)N)C(=O)N[C@@H](Cc1c[nH]c2ccccc12)C(N)=O | – | > 100 | 22 | 7.4 | – | –
CC(=O)N[C@@H](Cc1c[nH]cn1)C(=O)N[C@@H](C(=O)N[C@@H](CCCN=C(N)N)C(=O)N[C@@H](Cc1c[nH]c2ccccc12)C(N)=O)c1ccccc1 | > 100 | > 100 | 16.9 | – | – | –
CC(=O)N[C@@H](Cc1c[nH]cn1)C(=O)N[C@H](Cc1ccc(-c2ccccc2)cc1)C(=O)N[C@@H](CCCN=C(N)N)C(=O)N[C@@H](Cc1c[nH]c2ccccc12)C(N)=O | 0.0684 | 2.05 | 0.0284 | 0.0116 | – | –
CC(=O)N[C@@H](Cc1c[nH]cn1)C(=O)N[C@@H](Cc1ccccc1)C(=O)N[C@@H](CCCN=C(N)N)C(=O)N[C@@H](Cc1c[nH]c2ccccc12)C(N)=O | 0.00211 | – | – | – | – | –
CC(=O)N[C@@H](Cc1cnc[nH]1)C(=O)N[C@H](CCc1ccccc1)C(=O)N[C@@H](CCCNC(=N)N)C(=O)N[C@@H](Cc1c[nH]c2ccccc12)C(N)=O | 11.1 | > 100 | 6.25 | 2.8 | – | –
CC(=O)N[C@@H](Cc1cnc[nH]1)C(=O)N[C@@H](C)C(=O)N[C@@H](CCCNC(=N)N)C(=O)N[C@@H](Cc1c[nH]c2ccccc12)C(N)=O (Ac-HARW-NH2) | > 100 | > 100 | 30 | > 100 | – | –
CC(=O)N[C@@H](Cc1cnc[nH]1)C(=O)N[C@@H](Cc1c[nH]c2ccccc12)C(=O)N[C@@H](CCCNC(=N)N)C(=O)N[C@@H](Cc1c[nH]c2ccccc12)C(N)=O | 34.3 | > 100 | 33.4 | 18.4 | – | –
CC(=O)N[C@@H](Cc1cnc[nH]1)C(=O)N[C@H](Cc1ccc2ccccc2c1)C(=O)N[C@@H](CCCNC(=N)N)C(=O)N[C@@H](Cc1c[nH]c2ccccc12)C(N)=O | – | – | 0.167 | 0.0347 | 0.295 | 0.295
CC(=O)N[C@@H](Cc1cnc[nH]1)C(=O)N[C@@H](Cc1ccc(-c2ccccc2)cc1)C(=O)N[C@@H](CCCNC(=N)N)C(=O)N[C@@H](Cc1c[nH]c2ccccc12)C(N)=O | – | > 100 | 10.6 | 5.5 | – | –
CC(=O)N[C@@H](Cc1c[nH]cn1)C(=O)N1Cc2ccccc2C[C@H]1C(=O)N[C@@H](CCCN=C(N)N)C(=O)N[C@@H](Cc1c[nH]c2ccccc12)C(N)=O | > 100 | > 100 | 53.6 | 21.3 | – | –
CC(=O)N[C@@H](Cc1cnc[nH]1)C(=O)N[C@H](C(=O)N[C@@H](CCCNC(=N)N)C(=O)N[C@@H](Cc1c[nH]c2ccccc12)C(N)=O)c1ccccc1 | 40.5 | 44 | 14.7 | 4 | – | –
CC(=O)N[C@@H](Cc1c[nH]cn1)C(=O)N1Cc2ccccc2C[C@@H]1C(=O)N[C@@H](CCCN=C(N)N)C(=O)N[C@@H](Cc1c[nH]c2ccccc12)C(N)=O | > 100 | > 100 | 40.8 | > 100 | – | –
CC(=O)N[C@@H](Cc1cnc[nH]1)C(=O)N[C@@H](Cc1ccc(O)cc1)C(=O)N[C@@H](CCCNC(=N)N)C(=O)N[C@@H](Cc1c[nH]c2ccccc12)C(N)=O (Ac-HYRW-NH2) | > 100 | > 100 | 61.4 | 32.7 | – | –
CC(=O)N[C@@H](Cc1c[nH]cn1)C(=O)N[C@@H](Cc1c[nH]cn1)C(=O)N[C@@H](CCCN=C(N)N)C(=O)N[C@@H](Cc1c[nH]c2ccccc12)C(N)=O (Ac-HHRW-NH2) | > 100 | > 100 | 41.7 | 41.2 | – | –
CC(=O)N[C@@H](Cc1c[nH]cn1)C(=O)N[C@@H](CCc1ccccc1)C(=O)N[C@@H](CCCN=C(N)N)C(=O)N[C@@H](Cc1c[nH]c2ccccc12)C(N)=O | > 100 | > 100 | 33.1 | 11.8 | – | –
CC(=O)N[C@@H](Cc1cnc[nH]1)C(=O)N[C@H](Cc1ccc(O)cc1)C(=O)N[C@@H](CCCNC(=N)N)C(=O)N[C@@H](Cc1c[nH]c2ccccc12)C(N)=O | 2.4 | 34 | 3.2 | 0.631 | – | –
CC(=O)N[C@@H](Cc1cnc[nH]1)C(=O)N[C@H](C(=O)N[C@@H](CCCNC(=N)N)C(=O)N[C@@H](Cc1c[nH]c2ccccc12)C(N)=O)C(c1ccccc1)c1ccccc1 | > 100 | > 100 | 19 | > 100 | – | –
CC(=O)N[C@@H](Cc1c[nH]cn1)C(=O)NC1(C(=O)N[C@@H](CCCN=C(N)N)C(=O)N[C@@H](Cc2c[nH]c3ccccc23)C(N)=O)CCc2ccccc2C1 (stereo in doubt; 26) | 7.13 | 7.8 | 5.8 | 2.07 | – | –
CC(=O)N[C@@H](Cc1cnc[nH]1)C(=O)N[C@H](Cc1cccc2ccccc12)C(=O)N[C@@H](CCCNC(=N)N)C(=O)N[C@@H](Cc1c[nH]c2ccccc12)C(N)=O | 0.303 | 4.1 | 0.356 | 0.0514 | – | –
CC(=O)N[C@@H](Cc1c[nH]cn1)C(=O)NC1(C(=O)N[C@@H](CCCN=C(N)N)C(=O)N[C@@H](Cc2c[nH]c3ccccc23)C(N)=O)CCc2ccccc2C1 (stereo in doubt; 25) | 1.78 | 9.9 | 2.35 | 0.263 | – | –
CC(=O)N[C@@H](Cc1c[nH]cn1)C(=O)N[C@H](Cc1c[nH]c2ccccc12)C(=O)N[C@@H](CCCN=C(N)N)C(=O)N[C@@H](Cc1c[nH]c2ccccc12)C(N)=O | > 100 | > 100 | 25.1 | 6.95 | – | –
CC(=O)N[C@@H](Cc1cnc[nH]1)C(=O)N[C@@H](Cc1cccnc1)C(=O)N[C@@H](CCCNC(=N)N)C(=O)N[C@@H](Cc1c[nH]c2ccccc12)C(N)=O | > 100 | > 100 | 22.9 | 36.1 | – | –
